Test system: XAGCGCT
Test: Dangling-end thermal denaturation, sequence XAGCGCT (Table 2)
Format: physicochemical
Conditions: not given
Method: (§1) The dangling-end experimental method was utilized to evaluate the ability of the fluorinated aromatic base analogues to stabilize DNA duplexes when substituted directly adjacent to the helix. The relative stabilizations were measured by comparison of the energetics for helix—coil melting transition of the “core “duplex (lacking any “dangling “nucleotide) to that containing the extra nucleotide. Five short self-complementary sequence contexts were used; the sequences were chosen because they had been shown previously to be well-behaved thermodynamically in the dangling-end configuration. Data from two of the contexts are shown in Table 1, and data for the remaining three show similar trends. By use of these five contexts we were able to compare stacking effects of the base analogues with all four neighboring DNA bases in the helix.
(§2) Methods for thermodynamic measurements. Thermal denaturation. […] Solutions were then heated to 90° C. for 5 minutes and annealed by slowly cooling to room temperature and then to 0° C.

Row | SMILES | G stacking
1 | OC[C@H]1O[C@@H](c2c(F)c(F)c(F)c(F)c2F)C[C@@H]1O [pentafluorophenyl, 1′,2′-dideoxy-β-1′-(pentafluorophenyl)-D-ribofuranose] | 0.9

Same assay, conditions: marker c

Row | SMILES | −G37 [kcal] | −H [kcal] | −S [eu]
2 | OC[C@H]1O[C@@H](c2c(F)c(F)c(F)c(F)c2F)C[C@@H]1O [pentafluorophenyl, 1′,2′-dideoxy-β-1′-(pentafluorophenyl)-D-ribofuranose] | 7.9 | 45.0 | 120

Test system: XGTAGCTAC
Test: Dangling-end thermal denaturation, sequence XGTAGCTAC (Table 2)
Format: physicochemical
Conditions: marker c
Method: as §1, §2

Row | SMILES | −G37 [kcal] | −H [kcal] | −S [eu]
3 | OC[C@H]1O[C@@H](c2c(F)cc(F)cc2F)C[C@@H]1O [2,4,6-trifluorophenyl, 1′,2′-dideoxy-β-1′-(2,4,6-trifluorophenyl)-D-ribofuranose] | 8.4 | 52.5 | 142
4 | OCC1OC(c2cc(F)c(F)cc2F)CC1O (stereo not shown) [2,4,5-trifluorophenyl] |  | 72.5 | 204
5 | OC[C@H]1O[C@@H](c2c(F)c(F)c(F)c(F)c2F)C[C@@H]1O [pentafluorophenyl, 1′,2′-dideoxy-β-1′-(pentafluorophenyl)-D-ribofuranose] |  | 56.5 | 155

Same assay, conditions: marker d

Row | SMILES | −G37 [kcal]
6 | OCC1OC(c2cc(F)c(F)cc2F)CC1O (stereo not shown) [2,4,5-trifluorophenyl] | 9.1

Test system: (dCGCGCG)2 core duplex
Test: Dangling-end thermal denaturation, sequence XCGCGCG (Table 1)
Format: physicochemical
Conditions: 2,4,6- vs 2,4,5-substituted case
Method: (§3) The dangling-end experimental method was utilized to evaluate the ability of the fluorinated aromatic base analogues to stabilize DNA duplexes when substituted directly adjacent to the helix. The relative stabilizations were measured by comparison of the energetics for helix-coil melting transition of the “core “duplex (lacking any “dangling “nucleotide) to that containing the extra nucleotide. Five short self-complementary sequence contexts were used; the sequences were chosen because they had been shown previously to be well-behaved thermodynamically in the dangling-end configuration. Data from two of the contexts are shown in Table 1, and data for the remaining three show similar trends. By use of these five contexts we were able to compare stacking effects of the base analogues with all four neighboring DNA bases in the helix. Methods for thermodynamic measurements. Thermal denaturation. […] Solutions were then heated to 90° C. for 5 minutes and annealed by slowly cooling to room temperature and then to 0° C. […] Calculations.

Row | SMILES | change in Tm stabilization on moving one fluorine from ortho to meta position | change in stabilization free energy on moving one fluorine from ortho to meta position [kcal]
7 | OC[C@H]1O[C@@H](c2c(F)cc(F)cc2F)C[C@@H]1O [2,4,6-trifluorophenyl, 1′,2′-dideoxy-β-1′-(2,4,6-trifluorophenyl)-D-ribofuranose] | 6.8 | 1.6

Same assay, conditions: (dCGCGCG)2 core duplex

Row | SMILES | ΔΔG stacking (stability contributed) [kcalmol^−1]
8 | OC[C@H]1O[C@@H](c2c(F)c(F)c(F)c(F)c2F)C[C@@H]1O [pentafluorophenyl, 1′,2′-dideoxy-β-1′-(pentafluorophenyl)-D-ribofuranose] | −0.5

Same assay, conditions: XCGCGCG; 1 M NaCl, 10 mM sodium phosphate pH 7.0; 5.0 μM DNA-strand

Row | SMILES | Tm [°C]
9 | OC[C@H]1O[C@@H](c2c(F)cc(F)cc2F)C[C@@H]1O [2,4,6-trifluorophenyl, 1′,2′-dideoxy-β-1′-(2,4,6-trifluorophenyl)-D-ribofuranose] | 45.3
10 | OCC1OC(c2cc(F)c(F)cc2F)CC1O (stereo not shown) [2,4,5-trifluorophenyl] | 52.2
11 | OC[C@H]1O[C@@H](c2c(F)c(F)c(F)c(F)c2F)C[C@@H]1O [pentafluorophenyl, 1′,2′-dideoxy-β-1′-(pentafluorophenyl)-D-ribofuranose] | 44.2
12 | OC[C@H]1OC(c2ccc(F)cc2)C[C@@H]1O (stereo partly drawn) [4-fluorophenyl, 1′-(4-fluorophenyl)-2′-deoxy-D-ribose] | 51.2

Same assay, conditions: XCGCGCG; Van't Hoff plots

Row | SMILES | −ΔG37 [kcal] | −ΔH [kcal] | −ΔS [eu]
13 | OC[C@H]1O[C@@H](c2c(F)cc(F)cc2F)C[C@@H]1O [2,4,6-trifluorophenyl, 1′,2′-dideoxy-β-1′-(2,4,6-trifluorophenyl)-D-ribofuranose] | 8.4 ± 0.2 | 37.3 | 104
14 | OCC1OC(c2cc(F)c(F)cc2F)CC1O (stereo not shown) [2,4,5-trifluorophenyl] | 10.1 ± 0.3 | 55.0 | 145
15 | OC[C@H]1O[C@@H](c2c(F)c(F)c(F)c(F)c2F)C[C@@H]1O [pentafluorophenyl, 1′,2′-dideoxy-β-1′-(pentafluorophenyl)-D-ribofuranose] | 8.5 ± 0.2 | 39.1 | 99
16 | OC[C@H]1OC(c2ccc(F)cc2)C[C@@H]1O (stereo partly drawn) [4-fluorophenyl, 1′-(4-fluorophenyl)-2′-deoxy-D-ribose] | 10.3 ± 0.3 | 64.9 | 175

Same assay, conditions: XCGCGCG; average from fits to individual melting curves

Row | SMILES | −ΔG37 [kcal]
17 | OC[C@H]1O[C@@H](c2c(F)cc(F)cc2F)C[C@@H]1O [2,4,6-trifluorophenyl, 1′,2′-dideoxy-β-1′-(2,4,6-trifluorophenyl)-D-ribofuranose] | 8.6 ± 0.1
18 | OCC1OC(c2cc(F)c(F)cc2F)CC1O (stereo not shown) [2,4,5-trifluorophenyl] | 10.0 ± 0.1
19 | OC[C@H]1O[C@@H](c2c(F)c(F)c(F)c(F)c2F)C[C@@H]1O [pentafluorophenyl, 1′,2′-dideoxy-β-1′-(pentafluorophenyl)-D-ribofuranose] | 8.7 ± 0.1
20 | OC[C@H]1OC(c2ccc(F)cc2)C[C@@H]1O (stereo partly drawn) [4-fluorophenyl, 1′-(4-fluorophenyl)-2′-deoxy-D-ribose] | 9.9 ± 0.2

Same assay, conditions: XCGCGCG; difference from core duplex

Row | SMILES | ΔΔG stacking
21 | OC[C@H]1O[C@@H](c2c(F)cc(F)cc2F)C[C@@H]1O [2,4,6-trifluorophenyl, 1′,2′-dideoxy-β-1′-(2,4,6-trifluorophenyl)-D-ribofuranose] | 0.4 ± 0.1
22 | OCC1OC(c2cc(F)c(F)cc2F)CC1O (stereo not shown) [2,4,5-trifluorophenyl] | 2.0 ± 0.2
23 | OC[C@H]1O[C@@H](c2c(F)c(F)c(F)c(F)c2F)C[C@@H]1O [pentafluorophenyl, 1′,2′-dideoxy-β-1′-(pentafluorophenyl)-D-ribofuranose] | 0.5 ± 0.2
24 | OC[C@H]1OC(c2ccc(F)cc2)C[C@@H]1O (stereo partly drawn) [4-fluorophenyl, 1′-(4-fluorophenyl)-2′-deoxy-D-ribose] | 2.0 ± 0.2

Same assay, conditions: XCGCGCG; vs core duplex

Row | SMILES | ΔTm [°C]
25 | OC[C@H]1O[C@@H](c2c(F)cc(F)cc2F)C[C@@H]1O [2,4,6-trifluorophenyl, 1′,2′-dideoxy-β-1′-(2,4,6-trifluorophenyl)-D-ribofuranose] | 4.0
26 | OCC1OC(c2cc(F)c(F)cc2F)CC1O (stereo not shown) [2,4,5-trifluorophenyl] | 10.8
27 | OC[C@H]1O[C@@H](c2c(F)c(F)c(F)c(F)c2F)C[C@@H]1O [pentafluorophenyl, 1′,2′-dideoxy-β-1′-(pentafluorophenyl)-D-ribofuranose] | 2.9
28 | OC[C@H]1OC(c2ccc(F)cc2)C[C@@H]1O (stereo partly drawn) [4-fluorophenyl, 1′-(4-fluorophenyl)-2′-deoxy-D-ribose] | 9.8

Test system: XTGAGCTCA
Test: Dangling-end thermal denaturation, sequence XTGAGCTCA (Table 2)
Format: physicochemical
Conditions: not given
Method: as §1, §2

Row | SMILES | G stacking
29 | OC[C@H]1O[C@@H](c2c(F)cc(F)cc2F)C[C@@H]1O [2,4,6-trifluorophenyl, 1′,2′-dideoxy-β-1′-(2,4,6-trifluorophenyl)-D-ribofuranose] | 1.3
30 | OCC1OC(c2cc(F)c(F)cc2F)CC1O (stereo not shown) [2,4,5-trifluorophenyl] | 1.5

Same assay, conditions: marker c

Row | SMILES | −G37 [kcal] | −H [kcal] | −S [eu]
31 | OC[C@H]1O[C@@H](c2c(F)cc(F)cc2F)C[C@@H]1O [2,4,6-trifluorophenyl, 1′,2′-dideoxy-β-1′-(2,4,6-trifluorophenyl)-D-ribofuranose] | 8.8 | 46.7 | 122
32 | OCC1OC(c2cc(F)c(F)cc2F)CC1O (stereo not shown) [2,4,5-trifluorophenyl] | 9.2 | 53.8 | 144
33 | OC[C@H]1O[C@@H](c2c(F)c(F)c(F)c(F)c2F)C[C@@H]1O [pentafluorophenyl, 1′,2′-dideoxy-β-1′-(pentafluorophenyl)-D-ribofuranose] | 8.7 | 48.6 | 128

Same assay, conditions: marker d

Row | SMILES | −G37 [kcal]
34 | OC[C@H]1O[C@@H](c2c(F)cc(F)cc2F)C[C@@H]1O [2,4,6-trifluorophenyl, 1′,2′-dideoxy-β-1′-(2,4,6-trifluorophenyl)-D-ribofuranose] | 9.0
35 | OCC1OC(c2cc(F)c(F)cc2F)CC1O (stereo not shown) [2,4,5-trifluorophenyl] | 9.1
36 | OC[C@H]1O[C@@H](c2c(F)c(F)c(F)c(F)c2F)C[C@@H]1O [pentafluorophenyl, 1′,2′-dideoxy-β-1′-(pentafluorophenyl)-D-ribofuranose] | 8.9

Test system: XACAGCTGT
Test: Dangling-end thermal denaturation, sequence XACAGCTGT (Table 1)
Format: physicochemical
Conditions: 1 M NaCl, 10 mM sodium phosphate pH 7.0, 5.0 μM DNA-strand
Method: as §3

Row | SMILES | Tm [°C]
37 | OC[C@H]1O[C@@H](c2c(F)cc(F)cc2F)C[C@@H]1O [2,4,6-trifluorophenyl, 1′,2′-dideoxy-β-1′-(2,4,6-trifluorophenyl)-D-ribofuranose] | 47.8
38 | OCC1OC(c2cc(F)c(F)cc2F)CC1O (stereo not shown) [2,4,5-trifluorophenyl] | 48.9
39 | OC[C@H]1O[C@@H](c2c(F)c(F)c(F)c(F)c2F)C[C@@H]1O [pentafluorophenyl, 1′,2′-dideoxy-β-1′-(pentafluorophenyl)-D-ribofuranose] | 47.3
40 | OC[C@H]1OC(c2ccc(F)cc2)C[C@@H]1O (stereo partly drawn) [4-fluorophenyl, 1′-(4-fluorophenyl)-2′-deoxy-D-ribose] | 48.7

Same assay, conditions: Van't Hoff plots

Row | SMILES | −ΔG37 [kcal] | −ΔH [kcal] | −ΔS [eu]
41 | OC[C@H]1O[C@@H](c2c(F)cc(F)cc2F)C[C@@H]1O [2,4,6-trifluorophenyl, 1′,2′-dideoxy-β-1′-(2,4,6-trifluorophenyl)-D-ribofuranose] | 9.3 ± 0.2 | 53.6 | 143
42 | OCC1OC(c2cc(F)c(F)cc2F)CC1O (stereo not shown) [2,4,5-trifluorophenyl] | 10.1 ± 0.2 | 67.8 | 186
43 | OC[C@H]1O[C@@H](c2c(F)c(F)c(F)c(F)c2F)C[C@@H]1O [pentafluorophenyl, 1′,2′-dideoxy-β-1′-(pentafluorophenyl)-D-ribofuranose] | 9.3 ± 0.0 | 55.2 | 148
44 | OC[C@H]1OC(c2ccc(F)cc2)C[C@@H]1O (stereo partly drawn) [4-fluorophenyl, 1′-(4-fluorophenyl)-2′-deoxy-D-ribose] | 9.9 ± 0.1 | 66.6 | 183

Same assay, conditions: average from fits to individual melting curves

Row | SMILES | −ΔG37 [kcal]
45 | OC[C@H]1O[C@@H](c2c(F)cc(F)cc2F)C[C@@H]1O [2,4,6-trifluorophenyl, 1′,2′-dideoxy-β-1′-(2,4,6-trifluorophenyl)-D-ribofuranose] | 9.4 ± 0.2
46 | OCC1OC(c2cc(F)c(F)cc2F)CC1O (stereo not shown) [2,4,5-trifluorophenyl] | 9.7 ± 0.1
47 | OC[C@H]1O[C@@H](c2c(F)c(F)c(F)c(F)c2F)C[C@@H]1O [pentafluorophenyl, 1′,2′-dideoxy-β-1′-(pentafluorophenyl)-D-ribofuranose] | 9.3 ± 0.2
48 | OC[C@H]1OC(c2ccc(F)cc2)C[C@@H]1O (stereo partly drawn) [4-fluorophenyl, 1′-(4-fluorophenyl)-2′-deoxy-D-ribose] | 9.6 ± 0.1

Same assay, conditions: difference from core duplex

Row | SMILES | ΔΔG stacking
49 | OC[C@H]1O[C@@H](c2c(F)cc(F)cc2F)C[C@@H]1O [2,4,6-trifluorophenyl, 1′,2′-dideoxy-β-1′-(2,4,6-trifluorophenyl)-D-ribofuranose] | 1.3 ± 0.2
50 | OCC1OC(c2cc(F)c(F)cc2F)CC1O (stereo not shown) [2,4,5-trifluorophenyl] | 1.9 ± 0.2
51 | OC[C@H]1O[C@@H](c2c(F)c(F)c(F)c(F)c2F)C[C@@H]1O [pentafluorophenyl, 1′,2′-dideoxy-β-1′-(pentafluorophenyl)-D-ribofuranose] | 1.3 ± 0.1
52 | OC[C@H]1OC(c2ccc(F)cc2)C[C@@H]1O (stereo partly drawn) [4-fluorophenyl, 1′-(4-fluorophenyl)-2′-deoxy-D-ribose] | 1.8 ± 0.1

Same assay, conditions: vs core duplex

Row | SMILES | ΔTm [°C]
53 | OC[C@H]1O[C@@H](c2c(F)cc(F)cc2F)C[C@@H]1O [2,4,6-trifluorophenyl, 1′,2′-dideoxy-β-1′-(2,4,6-trifluorophenyl)-D-ribofuranose] | 7.9
54 | OCC1OC(c2cc(F)c(F)cc2F)CC1O (stereo not shown) [2,4,5-trifluorophenyl] | 9.0
55 | OC[C@H]1O[C@@H](c2c(F)c(F)c(F)c(F)c2F)C[C@@H]1O [pentafluorophenyl, 1′,2′-dideoxy-β-1′-(pentafluorophenyl)-D-ribofuranose] | 7.0
56 | OC[C@H]1OC(c2ccc(F)cc2)C[C@@H]1O (stereo partly drawn) [4-fluorophenyl, 1′-(4-fluorophenyl)-2′-deoxy-D-ribose] | 8.7

From patent US20060154889A1, “Polyfluorinated nucleoside analogs and methods of use thereof” (priority 2004, published 2006)
